From patent US9023789B2, “Amylin analogs and pharmaceutical compositions thereof” (Novo Nordisk A/S, priority 2012, dated 2015)
Numbered stars: 1 amine (or outer) side, 2 acyl side, 3 side chain; on linkers, the order of the positions; unused ones are H or OH. Bridge positions count the residues as written; N and C are the ends. Side chains are listed from the residue outwards. Peptide text beside a SMILES is read from it. * marks the point of attachment. C20 diacid = O=C(O)CCCCCCCCCCCCCCCCCCC(=O)*; γGlu = O=C(O)[C@H](CCC(=O)[*:2])N[*:1]

Experiments:
[1] = biological target: T1, human amylin 3(a) receptor (human calcitonin receptor + RAMP-3) in BHK570 cells (Homo sapiens, UniProt O60896+P30988); assay: ASSAY (II)a functional assay, human amylin receptor (CRE luciferase); assay type: cell-based
T1 construct: expressed in transfected cells
Method in brief: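 Functional agonism was measured by CRE-luciferase reporter luminescence in BHK cells bearing calcitonin receptor, or calcitonin receptor plus RAMP-3 as the amylin 3(a) receptor. Stimulation lasted 3 hours at 37° C.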

[2] = biological target: T2, human amylin receptor (membranes from Amylin 3(a)/CRE-luc cells) (Homo sapiens, UniProt O60896+P30988); assay: ASSAY (V) binding to the human amylin receptor (SPA, 125I-rat amylin);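 also: competition binding of cell membranes (35 ng/µL) mixed with SPA beads in 384-well plates at 40 µL total volume, read by scintillation counting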
T2 construct: expressed in transfected cells
T2 sequence (P30988 25-474): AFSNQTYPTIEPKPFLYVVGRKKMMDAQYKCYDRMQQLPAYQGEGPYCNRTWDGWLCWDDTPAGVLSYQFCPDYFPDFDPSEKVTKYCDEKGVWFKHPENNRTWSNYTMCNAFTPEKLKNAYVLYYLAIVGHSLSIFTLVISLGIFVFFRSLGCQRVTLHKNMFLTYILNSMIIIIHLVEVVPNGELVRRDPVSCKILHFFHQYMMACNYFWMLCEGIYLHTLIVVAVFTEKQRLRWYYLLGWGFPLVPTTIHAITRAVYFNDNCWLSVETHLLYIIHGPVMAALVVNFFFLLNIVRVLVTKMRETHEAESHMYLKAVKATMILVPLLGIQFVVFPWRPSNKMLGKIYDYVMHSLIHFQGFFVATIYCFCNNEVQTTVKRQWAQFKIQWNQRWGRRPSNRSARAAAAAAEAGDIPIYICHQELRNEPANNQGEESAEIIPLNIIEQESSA
T2 sequence (O60896 24-148 partner): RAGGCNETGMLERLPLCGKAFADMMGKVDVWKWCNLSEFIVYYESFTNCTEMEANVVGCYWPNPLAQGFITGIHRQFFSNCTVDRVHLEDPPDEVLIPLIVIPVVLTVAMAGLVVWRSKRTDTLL
Procedure: The binding assay was performed using scintillation proximity assay (SPA) beads (RPNQ0001) from PerkinElmer and cell membranes from the Amylin 3(a)/CRE-luc cells (as described in Assay (II)) were used. Membranes were prepared in the following way; the cells were rinsed with PBS and incubated with Versene for approximately 5 min before harvesting. The cells were flushed with PBS and the cell-suspension was centrifuged for 5 min at 1000 rpm. […] The resulting pellet was resuspended in buffer 2 and protein concentration was measured (BCA protein Assay, Pierce). The homogenate was kept cold during the whole procedure. The membranes were kept at −80° C. until use. The assay was performed in a 384 well Optiplate (PerkinElmer) in a total volume of 40 ul. Membranes were mixed with SPA beads. Final concentration of membranes 35 ng/μL final and SPA beads was 0.05 mg/well. Test-compounds were dissolved in DMSO and further diluted in assay buffer (50 mM Hepes, pH 7.4, 1 mM CaCl2, 5 mM MgCl2, 0.1% OA and 0.02% Tween20). […] Samples were analyzed on TopCounter™ (Packard). The IC50 was calculated using (one site binding competition analysis) GraphPad Prism5 as a measure of receptor affinity.

[3] = hCTR funct. EC50 / hAmylin-R funct. EC50
[4] = hCTR funct. EC50 divided by hAmylin-R funct. EC50
[5] = hCTR funct. EC50 over hAmylin-R funct. EC50
[6] = human functional selectivity: hCTR funct. EC50 / hAmylin-R funct. EC50
[7] = Table 5, selectivity, hCTR bind IC50 / hAmylin-R bind IC50
[8] = Table 7, human binding selectivity, included for comparison
[9] = Table 5a, selectivity, hCTR bind IC50 / hAmylin-R bind IC50
[10] = Table 5b, selectivity, hCTR bind IC50 / hAmylin-R bind IC50
[11] = Table 7a (preferred compounds), human binding selectivity, included for comparison
[12] = ratio of human calcitonin receptor binding IC50 to human amylin receptor binding IC50
[13] = Table 5c, selectivity, hCTR bind IC50 / hAmylin-R bind IC50

| SMILES | Ratio hCT/hAmylin funct. [1, 3] | Ratio hCT/hAmylin funct. [1, 4] | Ratio hCT/hAmylin funct. [1, 5] | Ratio hCT/hAmylin funct. [1, 6] | Ratio hCT/hAmylin binding [2, 7] | Ratio hCT/hAmylin binding [2, 8] | Ratio hCT/hAmylin binding [2, 9] | Ratio hCT/hAmylin binding [2, 10] | Ratio hCT/hAmylin binding [2, 11] | Ratio hCT/hAmylin binding [2, 12] | Ratio hCT/hAmylin binding [2, 13] |
| --- | --- | --- | --- | --- | --- | --- | --- | --- | --- | --- | --- |
| CC[C@H](C)[C@H](NC(=O)[C@H](C)NC(=O)CNC(=O)[C@H](Cc1ccccc1)NC(=O)[C@H](CC(N)=O)NC(=O)[C@@H]1CCCN1C(=O)[C@H](CO)NC(=O)[C@H](CO)NC(=O)[C@H](Cc1c[nH]cn1)NC(=O)[C@H](CCCNC(=N)N)NC(=O)[C@H](CC(C)C)NC(=O)[C@H](Cc1ccccc1)NC(=O)[C@H](CCC(=O)O)NC(=O)[C@H](C)NC(=O)[C@H](CC(C)C)NC(=O)[C@H](CCCNC(=N)N)NC(=O)[C@H](CCC(N)=O)NC(=O)[C@@H](NC(=O)[C@H](C)NC(=O)[C@@H]1CSSC[C@H](NC(=O)[C@@H](N)CCCCNC(=O)CC[C@H](NC(=O)CCCCCCCCCCCCCCCCCCC(=O)O)C(=O)O)C(=O)N[C@@H](CC(N)=O)C(=O)N[C@@H]([C@@H](C)O)C(=O)N[C@@H](C)C(=O)N[C@@H]([C@@H](C)O)C(=O)N1)[C@@H](C)O)C(=O)N1CCC[C@H]1C(=O)N[C@@H](CO)C(=O)N[C@@H](CO)C(=O)N[C@H](C(=O)N[C@@H](CC(N)=O)C(=O)N[C@H](C(=O)NCC(=O)N[C@@H](CO)C(=O)N[C@@H](CC(N)=O)C(=O)N[C@H](C(=O)N1CCC[C@H]1C(N)=O)[C@@H](C)O)C(C)C)[C@@H](C)O [Example 12] (H-K([γGlu-C20 diacid])CNTATCATQRLAEFLRHSSPNFGAIPSSTNVGSNTP-NH2; disulfide 2-7 (inferred); N-terminus assumed) | 1.8 | 1.8 | 1.8 | 1.8 | 2.5 | 2.5 |  |  |  |  |  |
| CC[C@H](C)[C@H](NC(=O)[C@H](C)NC(=O)CNC(=O)[C@H](Cc1ccccc1)NC(=O)[C@H](CC(N)=O)NC(=O)[C@@H]1CCCN1C(=O)[C@H](CO)NC(=O)[C@H](CO)NC(=O)[C@H](Cc1c[nH]cn1)NC(=O)[C@H](CCCNC(=N)N)NC(=O)[C@H](CC(C)C)NC(=O)[C@H](Cc1ccccc1)NC(=O)[C@H](CCC(=O)O)NC(=O)[C@H](C)NC(=O)[C@H](CC(C)C)NC(=O)[C@H](CCCNC(=N)N)NC(=O)[C@H](CCC(N)=O)NC(=O)[C@@H](NC(=O)[C@H](C)NC(=O)[C@@H]1CSSC[C@H](NC(=O)[C@H](CCCCN)NC(=O)CC[C@H](NC(=O)CCCCCCCCCCCCCCCCCCC(=O)O)C(=O)O)C(=O)N[C@@H](CC(N)=O)C(=O)N[C@@H]([C@@H](C)O)C(=O)N[C@@H](C)C(=O)N[C@@H]([C@@H](C)O)C(=O)N1)[C@@H](C)O)C(=O)N1CCC[C@H]1C(=O)N[C@@H](CO)C(=O)N[C@@H](CO)C(=O)N[C@H](C(=O)N[C@@H](CC(N)=O)C(=O)N[C@H](C(=O)NCC(=O)N[C@@H](CO)C(=O)N[C@@H](CCCNC(=N)N)C(=O)N[C@H](C(=O)N[C@@H](Cc1ccc(O)cc1)C(N)=O)[C@@H](C)O)C(C)C)[C@@H](C)O [Example 16] ({C20 diacid-γGlu}-KCNTATCATQRLAEFLRHSSPNFGAIPSSTNVGSRTY-NH2; disulfide 2-7) |  | 6.1 | 6.1 | 6.1 | 19.1 | 19.1 | 19.1 | 19.1 | 19.1 | 19.1 |  |
| CC[C@H](C)[C@H](NC(=O)[C@H](C)NC(=O)CNC(=O)[C@H](Cc1ccccc1)NC(=O)[C@H](CC(N)=O)NC(=O)[C@@H]1CCCN1C(=O)[C@H](CO)NC(=O)[C@H](CO)NC(=O)[C@H](Cc1c[nH]cn1)NC(=O)[C@H](CCCNC(=N)N)NC(=O)[C@H](CC(C)C)NC(=O)[C@H](Cc1ccccc1)NC(=O)[C@H](CCC(=O)O)NC(=O)[C@H](C)NC(=O)[C@H](CC(C)C)NC(=O)[C@H](CCCNC(=N)N)NC(=O)[C@H](CCC(N)=O)NC(=O)[C@@H](NC(=O)[C@H](C)NC(=O)[C@@H]1CSSC[C@H](NC(=O)[C@H](CCCCN)NC(=O)COCCOCCNC(=O)COCCOCCNC(=O)CC[C@H](NC(=O)CCCCCCCCCCCCCCCCCCC(=O)O)C(=O)O)C(=O)N[C@@H](CC(N)=O)C(=O)N[C@@H]([C@@H](C)O)C(=O)N[C@@H](C)C(=O)N[C@@H]([C@@H](C)O)C(=O)N1)[C@@H](C)O)C(=O)N1CCC[C@H]1C(=O)N[C@@H](CO)C(=O)N[C@@H](CO)C(=O)N[C@H](C(=O)N[C@@H](CC(N)=O)C(=O)N[C@H](C(=O)NCC(=O)N[C@@H](CO)C(=O)N[C@@H](CC(N)=O)C(=O)N[C@H](C(=O)N[C@@H](Cc1ccc(O)cc1)C(N)=O)[C@@H](C)O)C(C)C)[C@@H](C)O [Example 19] |  | 17.4 | 17.4 | 17.4 | 36.7 | 36.7 | 36.7 | 36.7 | 36.7 | 36.7 | 36.7 |
| CC[C@H](C)[C@H](NC(=O)[C@H](C)NC(=O)CNC(=O)[C@H](Cc1ccccc1)NC(=O)[C@H](CC(N)=O)NC(=O)[C@@H]1CCCN1C(=O)[C@H](CO)NC(=O)[C@H](CO)NC(=O)[C@H](Cc1c[nH]cn1)NC(=O)[C@H](CCCNC(=N)N)NC(=O)[C@H](CC(C)C)NC(=O)[C@H](Cc1ccccc1)NC(=O)[C@H](CCC(=O)O)NC(=O)[C@H](C)NC(=O)[C@H](CC(C)C)NC(=O)[C@H](CCCNC(=N)N)NC(=O)[C@H](CCC(N)=O)NC(=O)[C@@H](NC(=O)[C@H](C)NC(=O)[C@@H]1CSSC[C@H](NC(=O)[C@H](CCCCN)NC(=O)CC[C@H](NC(=O)CCCCCCCCCCCCCCCCCCC(=O)O)C(=O)O)C(=O)N[C@@H](CC(N)=O)C(=O)N[C@@H]([C@@H](C)O)C(=O)N[C@@H](C)C(=O)N[C@@H]([C@@H](C)O)C(=O)N1)[C@@H](C)O)C(=O)N1CCC[C@H]1C(=O)N[C@@H](CO)C(=O)N[C@@H](CO)C(=O)N[C@H](C(=O)N[C@@H](CC(N)=O)C(=O)N[C@H](C(=O)NCC(=O)N[C@@H](CO)C(=O)N[C@@H](CCC(=O)O)C(=O)N[C@H](C(=O)N[C@@H](Cc1ccc(O)cc1)C(N)=O)[C@@H](C)O)C(C)C)[C@@H](C)O [Example 22] ({C20 diacid-γGlu}-KCNTATCATQRLAEFLRHSSPNFGAIPSSTNVGSETY-NH2; disulfide 2-7) | 3.8 | 3.8 | 3.8 | 3.8 | 12.3 | 12.3 | 12.3 |  | 12.3 | 12.3 |  |
| CC[C@H](C)[C@H](NC(=O)[C@H](C)NC(=O)CNC(=O)[C@H](Cc1ccccc1)NC(=O)[C@H](CC(N)=O)NC(=O)[C@@H]1CCCN1C(=O)[C@H](CO)NC(=O)[C@H](CO)NC(=O)[C@H](Cc1c[nH]cn1)NC(=O)[C@H](CCCNC(=N)N)NC(=O)[C@H](CC(C)C)NC(=O)[C@H](Cc1ccccc1)NC(=O)[C@H](CC(N)=O)NC(=O)[C@H](C)NC(=O)[C@H](CC(C)C)NC(=O)[C@H](CCCNC(=N)N)NC(=O)[C@H](CCC(N)=O)NC(=O)[C@@H](NC(=O)[C@H](C)NC(=O)[C@@H]1CSSC[C@H](NC(=O)[C@H](CCCCN)NC(=O)CC[C@H](NC(=O)CCCCCCCCCCCCCCCCCCC(=O)O)C(=O)O)C(=O)N[C@@H](CC(N)=O)C(=O)N[C@@H]([C@@H](C)O)C(=O)N[C@@H](C)C(=O)N[C@@H]([C@@H](C)O)C(=O)N1)[C@@H](C)O)C(=O)N1CCC[C@H]1C(=O)N[C@@H](CO)C(=O)N[C@@H](CO)C(=O)N[C@H](C(=O)N[C@@H](CC(N)=O)C(=O)N[C@H](C(=O)NCC(=O)N[C@@H](CO)C(=O)N[C@@H](CCC(=O)O)C(=O)N[C@H](C(=O)N[C@@H](Cc1ccc(O)cc1)C(N)=O)[C@@H](C)O)C(C)C)[C@@H](C)O [Example 23] |  | 8.9 | 8.9 | 8.9 | 25.0 | 25.0 | 25.0 | 25.0 | 25.0 | 25.0 | 25.0 |
